The values that follow come from publication PMC8744131, “Dimensionless parameter predicts bacterial prodrug success” (Molecular Systems Biology, 2022).

The test system of one assay is UTI89 E. coli. The assay is described as follows: Bacterial toxicity of TMP and TM-TMP (CFU / MIC). It is filed as cell-based.
Assay [1] has as its system OmpT expressed on the surface of E. coli K‐12 BW25113. The assay is described as follows: Cleavage assay with OmpT expressed on the surface of E. coli. It is filed as biochemical. Conditions: 37°C, n = 3. The text has this: To measure OmpT activity, we synthesized an activity probe (McCarter et al, [2004]; Kwong et al, [2013], [2021]; Holt et al, [2017], [2018]; Mac et al, [2019]; Zhuang et al, [2019]) with free linker peptides containing a fluorophore‐quencher pair, which produced an increase in fluorescence upon proteolytic cleavage.
(§1) Positive control for AMP toxicity (black bar).

The subject of assay [2] is DH5α E. coli. Nature of the assay: Bacteria viability assay, AMP prodrugs with TEV protease or inhibitor. Particulars: CFU, n = 3–4. It is filed as cell-based.
In assay [3] the target is OmpT (Escherichia coli, UniProt P09169). Particulars: Fig EV5B, text printed in picture. The text has this:
(§2) This allowed us to more rigorously test the model by predicting bacteria‐prodrug response curves across nine distinct combinations of kcat and r values before performing the physical experiments. We experimentally controlled the nine distinct combinations of kcat and r values by altering the ambient temperature and concentration of broth (conditions labeled A1–3, B1–3, and C1–3; Table EV3). We affected the enzymatic activation rate of the prodrug, kcat, by changing temperature as described by the Arrhenius equation (Calvert, [1990]). […] To experimentally validate this, we incubated bacteria with AMP prodrug under the defined nine conditions and quantified the number of living bacteria longitudinally over the course of a 24‐h treatment window.

For assay [4], the system named is DH5α E. coli. The assay is described as follows: Short-time drug dosing experiment with free AMP for a and b. It is filed as cell-based. Conditions: DH5a + AMP prodrug model; from free AMP dosing, t < 10 min, n = 3.
Description: Experiment was taken at a short time interval (t < 10 min) so we could calculate the number of bacteria and drug copies consumed in each killing reaction.
The test system of assay [5] is DH5α E. coli. Nature of the assay: Bacterial Advantage Heuristic (BAH) / model, AMP prodrug system.
From the text: as §2

A further assay concerns the target OmpT on DH5α E. coli (Escherichia coli, UniProt P09169).
From the text: as §2
Figure EV2 Calculating bacterial growth rate and enzymatic activity in the AMP prodrug system • Schematic of the simplified model that only includes bacteria and a substrate probe, which was used to quantify r and kcat from bacterial cleavage assays. • Bacterial cleavage assays (blue line) where we are measuring the increase in fluorescence from the cleavage of the fluor‐quencher substrate probe over time. Bacteria and fluor‐quencher probe are incubated together for 12 h. Then, we fit a simplified model to the results, which is plotted as the dashed line. Each panel is labeled with the environmental condition as described in Table EV3 and correlating with Fig 4.
Table EV3. Additional information for experimental conditions. This information includes incubation temperature (second column from left), the concentration of LB broth by volume (third column from left), growth rate, r (fourth column from left), enzyme catalytic turnover, kcat (fifth column from left), and the bacterial advantage heuristic, BAH (sixth column from left).

In assay [6] the test system is OmpT. Conditions: micromolar concentrations; ref Brannon et al, 2015; cited from earlier work. The text has this:
To validate the predictions of our mathematical model with an in vitro bacteria‐activated prodrug system, we synthesized a protease‐activated AMP prodrug. This AMP prodrug comprised cationic (polyarginine, R9) antimicrobial peptides (AMP) in charge complexation with anionic peptide locks (polyglutamic acid, E13) by a linker peptide (RRS|RRV) specific for the ubiquitous bacterial protease OmpT (Olson et al, [2009]; preprint: Holt et al, [2019]). Upon proteolytic cleavage of the linker, the hairpin prodrug is unlocked to release free AMP (Fig 3A). To measure OmpT activity, we synthesized an acti ...

Assay [7] relates to DH5α E. coli. Nature of the assay: Bacteria viability assay (CFU), AMP system. Type of assay: cell-based. The protocol: as §1
Figure EV4 Parent drug control for all conditions in AMP prodrug system Parent drug (R9, polyarginine) controls for conditions testing different media conditions and temperatures in the AMP prodrug studies.
DH5α Escherichia coli were a gift from Todd Sulchek's BioMEMS lab at Georgia Tech. E. coli were cultured in LB broth (Lennox) at 37°C and plated on LB agar (Lennox) plates. LB broth was purchased from Millipore Sigma (Burlington, MA) and LB agar was purchased from Invitrogen (Carlsbad, CA). AMP and locked AMP were custom ordered from Genscript (Piscataway, NJ). See Table EV1 for more information. Bacteria were grown to a concentration of 10^9 CFU/ml before being used for experiments. Concentration was estimated by measuring the OD600 of the bacterial suspension, and assuming an OD600 of 1.000 corresponds to a concentration of 8 × 10^8 CFU/ml. Bacterial cell viability was measured by making eight 10‐fold serial dilutions, and plating three 10‐µl spots on an LB agar plate. Plates were incubated overnight at 37°C, and CFUs were counted. Untreated bacteria CFU counts served as control for 0% cytotoxicity, and bacteria + IPA (or 0 countable CFUs) served as control for 100% cytotoxicity.

Values after ≈ are worked out from the molar mass of the structure shown. Read-outs that look alike come from different tables or passages of the source. Where no end group is shown, it is not given here. The star is where a group is joined. 5FAM = O=C1OC2(c3ccc(O)cc3Oc3cc(O)ccc32)c2ccc(C(=O)*)cc21; Dabcyl = CN(C)c1ccc(N=Nc2ccc(C(=O)*)cc2)cc1

Chain of OmpT on DH5α E. coli (P09169 21-317): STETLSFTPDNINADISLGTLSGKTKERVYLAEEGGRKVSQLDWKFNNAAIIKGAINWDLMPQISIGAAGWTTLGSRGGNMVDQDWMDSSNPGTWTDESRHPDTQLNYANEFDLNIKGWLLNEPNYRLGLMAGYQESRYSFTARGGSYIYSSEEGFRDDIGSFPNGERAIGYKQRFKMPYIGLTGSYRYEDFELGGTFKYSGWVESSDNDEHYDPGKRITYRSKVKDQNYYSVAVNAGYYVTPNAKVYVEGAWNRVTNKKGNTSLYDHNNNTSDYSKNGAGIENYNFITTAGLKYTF
Chain of OmpT (Escherichia coli, UniProt P09169) (P09169 21-317): as above
From the text for UTI89 E. coli: Just as with our earlier experiments, we measured (i) the number of bacteria and (ii) the number of drug molecules consumed in each killing reaction to calculate the parameters a and b, respectively (Fig EV8).

For the compound `COc1cc(Cc2cnc(N)nc2N)cc(OC)c1OC` [TMP, trimethoprim], in the assay on UTI89 E. coli (5 mM GSH vs no GSH, surviving CFU), the “change in number of bacteria killed on adding GSH” value is “did not significantly change”. The “efficiency at killing bacteria vs TM-TMP” value with UTI89 E. coli (37°C, 75% broth, n = 3) is recorded as “significantly more efficient at killing UTI89 bacteria”. Also, the MIC in the assay on UTI89 E. coli (Escherichia coli, 37°C, 75% broth, n = 3, read-out: minimum inhibitory concentration (MIC)) is 3.2 µM (≈ 0.929 µg/mL).

Turning to “Dabcyl-RRSRRVK(5FAM) [OmpT Probe, free linker peptide RRSRRV with fluorophore-quencher pair]”, the “linker specificity: cleavage activity by parent strain vs OmpT knockout” value in assay [1] (OmpT-positive E. coli K‐12 BW25113 vs OmpT genetic knockout, fluorescence 485/528 nm, 60–120 min) was “only observed activity in samples incubated with the parent strain (i.e., OmpT‐positive)”. The “cleavage activity in presence of aprotinin” value in [1] (recombinant OmpT or E. coli surface OmpT with aprotinin, fluorescence) is on record as “no activity in samples containing the serine protease inhibitor, Aprotinin”.

For the compound “EEEEEEEEEEEEERRSRRVRRRRRRRRR [Locked AMP (linker 1)]”, the elimination of bacteria result in the assay with DH5α E. coli [2] (OmpT-specific locked AMP alone, natively expressed OmpT) is reported as “elimination of bacteria”. Also, at OmpT [3], the “catalytic efficiency kcat/Km (rank in words)” value is given as “High”. Moreover, the “a, bacterial death rate constant” value in the assay with DH5α E. coli [4] came to 1e-13 µL/h. The “b, drug decay rate constant” value in the assay with DH5α E. coli [4] was found to be 0.02 µL/h. In the assay with DH5α E. coli [5], the “ratio of a to b” value is given as 0.5 × 10^−11. Further, the kcat was 25 h^-1 x 10^10 on OmpT on DH5α E. coli (condition A1: 37 °C, 0% LB broth, r 0.1 h^-1); 13.6 h^-1 x 10^10 at OmpT on DH5α E. coli (condition A2: 30 °C, 2% LB broth, r 0.14 h^-1); 22 h^-1 x 10^10 on OmpT on DH5α E. coli (condition A3: 37 °C, 2% LB broth, r 0.3 h^-1); 15 h^-1 x 10^10 at OmpT on DH5α E. coli (condition B1: 37 °C, 4% LB broth, r 0.5 h^-1); 13.6 h^-1 x 10^10 at OmpT on DH5α E. coli (condition B2: 37 °C, 6% LB broth, r 0.85 h^-1); 1 h^-1 x 10^10 on OmpT on DH5α E. coli (condition B3: 37 °C, 20% LB broth, r 2.2 h^-1). Also, the kcat is recorded as 5.2 h^-1 x 10^10 on OmpT on DH5α E. coli (condition C1: 30 °C, 20% LB broth, r 1.4 h^-1); 4 h^-1 x 10^10 on OmpT on DH5α E. coli (condition C2: 30 °C, 66% LB broth, r 1.6 h^-1); 6 h^-1 x 10^10 on OmpT on DH5α E. coli (condition C3: 37 °C, 66% LB broth, r 3 h^-1).

Turning to “EEEEEEEEENLYFQGRRRRRRRR [Locked AMP (linker 3)]”, in the assay on DH5α E. coli [2] (TEV-specific locked AMP alone (no TEV protease)), the “reduction of bacteria load” value is recorded as “did not significantly reduce bacteria load”. Moreover, in the assay with DH5α E. coli [2] (TEV-specific locked AMP plus TEV protease), the elimination of bacteria result is “elimination of bacteria”. The “catalytic efficiency kcat/Km (rank in words)” value at OmpT [3] was “Lowest”.

In the case of aprotinin [reference compound], in the assay with DH5α E. coli [2] (control with OmpT inhibitor aprotinin plus OmpT-specific locked AMP), the “reduction of bacteria load” value is given as “did not significantly reduce bacteria load”. Besides, the “inhibition of OmpT” value in the assay with OmpT [6] was “inhibits OmpT when present in micromolar concentrations”.

Take polyarginine [free AMP]: the “reduction in colonies vs untreated controls” value with DH5α E. coli [7] (free AMP, CFU, n = 3–4 biological replicates, one-way ANOVA) is given as “significant reduction in colonies compared to untreated controls”. Also, the treatment success entry in the assay on DH5α E. coli [7] (nine conditions A1–C3 (30/37 °C, 0–66% LB broth), 24 h, serial CFU, n = 3) is given as “successfully treated bacteria in all nine conditions tested”.
